According to patent US20110077212A1, “THERAPEUTIC USES OF SGLT2 INHIBITORS” (Theracos, Inc., priority 2009, published 2011):
Where “and” joins values, the source holds several entries; their conditions need not be identical. Identical values can stand only once. Counter-ions that a name gives are not always drawn.

Legend:
[1] = system: SD Rats Fed a Pioglitazone (0.03%) Containing Diet; experiment: Body weight of SD rats fed a pioglitazone-containing diet for 7 days; format: in vivo, Sprague-Dawley rats; settings: for Body Weight (g) DAY 1: day 1 (first day of pioglitazone 0.03% diet and compound in drinking water), amiloride 1.5 mg/kg; for Body Weight (g) DAY 1 / Body Weight (%) DELTA (percent weight gain) / Body Weight (g) DELTA (weight gain) / Body Weight (g) DAY 7 / Body Weight (%) DAY 7: TEST COMPOUND 4.5 mg/kg; for Body Weight (g) DAY 1 / Body Weight (%) DELTA (percent weight gain) / Body Weight (g) DELTA (weight gain) / Body Weight (g) DAY 7 / Body Weight (%) DAY 1 / Body Weight (%) DAY 7: mean ± SEM; for Body Weight (%) DELTA (percent weight gain): day 7 minus day 1, percent of day 1 value; for Body Weight (%) DELTA (percent weight gain) / Body Weight (g) DELTA (weight gain) / Body Weight (%) DAY 1 / Body Weight (%) DAY 7: pioglitazone 0.03% diet; for Body Weight (%) DELTA (percent weight gain) / Body Weight (g) DELTA (weight gain) / Body Weight (g) DAY 7 / Body Weight (%) DAY 7: amiloride 1.5 mg/kg in drinking water; for Body Weight (g) DELTA (weight gain): day 7 minus day 1; for Body Weight (g) DAY 7: day 7 of pioglitazone 0.03% diet; for Body Weight (%) DAY 1 / Body Weight (%) DAY 7: percent of day 1 value
From the text: (§1) […] On day −5 rats and water bottles were weighed and placed in the cage with ad lib access to standard rodent chow. Body weights were used to assign rats to counter-balanced groups. Daily water consumption was estimated after weighing bottles again on day −1 and used to determine the appropriate drug concentrations to achieve the desired daily doses. On day 1, rats were weighed and then received an ad mixed diet (ad lib) containing 0.03% pioglitazone in place of standard chow. Food weight was recorded in order to track consumption over the course of the experiment. At this time, rats were also given drinking water containing compound at the appropriate concentration. Full bottles were pre-weighed and recorded in order to track consumption over the course of the experiment. On day 7, rats, food and water bottles were again weighed and recorded, hematocrits were determined using blood collected by a tail nick. All data are presented as means +/−1 SEM. Statistical analyses were performed using GraphPad Prism statistical software. The mean differences among the treatment groups for all variables were tested for statistical significance using 2-way repeated measures ANOVAs. Additionally, differences were calculated for each animal (day 7−day 1), and resultant means were tested for statistical significance using 1-way ANOVAs.

[2] = system: SD Rats Fed a Pioglitazone (0.03%) Containing Diet; experiment: Plasma volume (hematocrit) of SD rats fed a pioglitazone-containing diet for 7 days; format: in vivo, Sprague-Dawley rats; settings: for Plasma expansion versus vehicle treated rats (in words): 7 days pioglitazone diet, compound in drinking water; for Plasma Volume % DAY 1: day 1 (first day of pioglitazone 0.03% diet and compound in drinking water), amiloride 1.5 mg/kg; for Plasma Volume % DAY 1 / Plasma Volume % DELTA / Plasma Volume % DAY 7: TEST COMPOUND 4.5 mg/kg, mean ± SEM; for Plasma Volume % DELTA: day 7 minus day 1, pioglitazone 0.03% diet; for Plasma Volume % DELTA / Plasma Volume % DAY 7: amiloride 1.5 mg/kg in drinking water; for Plasma Volume % DAY 7: day 7 of pioglitazone 0.03% diet
From the text: as §1, with “On day 1 and day 7, rats were warmed using a heating pad and lightly anesthetized using isoflurane (Butler Animal Health Services; Chicago, Ill.). Using a sterile scalpel blade, a small tail nick was made on the distal one third of the tail. Blood was collected in a heparinized microcapillary tube (FisherBrand; Pittsburg, Pa.), sealed with putty at one end and stored on ice until centrifugation (5000 rpm, 5 min). Plasma volume was determined using a Critocaps microhematocrit capillary tube reader card (Leica: Lot #7426). On day 7, rats,” for “On day 7, rats,”

[3] = one week, pioglitazone 20-25 mg/kg/day in diet

OC[C@H]1O[C@@H](c2ccc(Cl)c(Cc3ccc(OCCOC4CC4)cc3)c2)[C@H](O)[C@@H](O)[C@@H]1O [TEST COMPOUND, (2S,3R,4R,5S,6R)-2-(4-chloro-3-(4-(2-cyclopropoxyethoxy)benzyl)phenyl)-6-(hydroxymethyl)tetrahydro-2H-pyran-3,4,5-triol]
Body Weight (g) DAY 1 [1]: 371.7 ± 5.0 ^ g | Body Weight (%) DELTA (percent weight gain) [1]: 4.8% and 4.8 ± 1.3 % | Body Weight (g) DELTA (weight gain) [1]: 17.4 g and 17.5 ± 4.7 g | Body Weight (g) DAY 7 [1]: 389.2 ± 5.7 ^†† g | Body Weight (%) DAY 1 [1]: 100 ± 0 ^ % | Body Weight (%) DAY 7 [1]: 104.8 ± 1.3 ^†† % | Plasma expansion versus vehicle treated rats (in words) [2]: significantly less plasma expansion than vehicle treated rats | Plasma Volume % DAY 1 [2]: 52.9 ± 0.5% | Plasma Volume % DELTA [2]: 1.8 ± 0.8 % | Plasma Volume % DAY 7 [2]: 54.7 ± 0.6 %

N=C(N)NC(=O)c1nc(Cl)c(N)nc1N [Amiloride, Amiloride HCl Hydrate]
Body Weight (g) DAY 1 [1]: 370.0 ± 6.0 g | Body Weight (%) DELTA (percent weight gain) [1]: 10.8 ± 0.7% | Body Weight (g) DELTA (weight gain) [1]: 40.0 ± 2.8 g | Body Weight (g) DAY 7 [1]: 410.0 ± 7.7 g | Body Weight (%) DAY 1 [1]: 100 ± 0% | Body Weight (%) DAY 7 [1]: 110.8 ± 0.7 % | Plasma expansion versus vehicle treated rats (in words) [2]: significance for the observed trend toward reversal of PPAR-γ induced expansion was not achieved | Plasma Volume % DAY 1 [2]: 52.7 ± 0.9% | Plasma Volume % DELTA [2]: 3.9 ± 0.7% | Plasma Volume % DAY 7 [2]: 56.6 ± 0.4 %

CCc1ccc(CCOc2ccc(CC3SC(=O)NC3=O)cc2)nc1 (stereo not shown) [pioglitazone]
Increase in body weight induced by pioglitazone [1, 3]: approximately 45 g | Plasma expansion induced by pioglitazone (in words) [2, 3]: significant plasma expansion
